Experimental data as given in BindingDB's records for doi:10.1080/14756360701408754 (Pharmaceutical Research Centre, 2008).

Molecular target: T1, Seed linoleate 13S-lipoxygenase-1 (Glycine max, UniProt P08170)
T1 sequence (P08170 whole entry): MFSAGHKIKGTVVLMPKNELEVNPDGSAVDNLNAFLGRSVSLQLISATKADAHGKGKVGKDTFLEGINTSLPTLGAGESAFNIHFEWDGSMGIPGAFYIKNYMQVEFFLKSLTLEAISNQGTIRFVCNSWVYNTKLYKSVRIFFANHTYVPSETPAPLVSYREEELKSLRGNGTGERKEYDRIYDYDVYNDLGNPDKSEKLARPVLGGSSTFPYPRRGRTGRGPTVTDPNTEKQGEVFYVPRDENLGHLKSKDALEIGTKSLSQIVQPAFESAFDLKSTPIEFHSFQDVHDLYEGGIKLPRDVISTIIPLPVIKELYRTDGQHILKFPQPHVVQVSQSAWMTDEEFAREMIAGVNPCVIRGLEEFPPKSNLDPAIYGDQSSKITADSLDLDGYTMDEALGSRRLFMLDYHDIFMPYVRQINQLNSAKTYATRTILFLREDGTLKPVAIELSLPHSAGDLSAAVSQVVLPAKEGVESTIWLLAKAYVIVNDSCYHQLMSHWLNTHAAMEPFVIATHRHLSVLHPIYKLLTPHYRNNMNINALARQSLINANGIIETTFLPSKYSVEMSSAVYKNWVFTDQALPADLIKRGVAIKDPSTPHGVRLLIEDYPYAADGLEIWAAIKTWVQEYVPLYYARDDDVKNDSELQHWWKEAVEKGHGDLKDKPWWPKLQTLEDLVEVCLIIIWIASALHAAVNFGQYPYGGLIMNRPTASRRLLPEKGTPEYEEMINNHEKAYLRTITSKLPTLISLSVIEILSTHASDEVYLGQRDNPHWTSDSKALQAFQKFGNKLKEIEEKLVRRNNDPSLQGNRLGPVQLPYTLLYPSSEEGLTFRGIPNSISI
Assay: Inhibition Assay
Conditions: pH 8; 25 °C
Method: In vitro liposygenase inhibition assay activity was measured by modifying the spectrophotometric method developed by Tappel. The compound was prepared in methanol at various concentrations ([…]). The inhibition by lipoxygenase activity by 50% (IC50) was determined by monitoring the effect of increasing concentrations of these compounds in the assays on the degree of inhibition.

SMILES	IC50 [µM]
CC1(C)CC(=O)C(C(c2ccc(O)c(Br)c2)C2C(=O)CC(C)(C)CC2=O)C(=O)C1 [Tetraketone, 15]	27.1
COc1ccccc1C(C1C(=O)CC(C)(C)CC1=O)C1C(=O)CC(C)(C)CC1=O [Tetraketone, 7]	196
CC1(C)CC(=O)C(C(c2cccc(Br)c2)C2C(=O)CC(C)(C)CC2=O)C(=O)C1 [Tetraketone, 14]	52.9
CC1(C)CC(=O)C(C(c2ccc(O)cc2)C2C(=O)CC(C)(C)CC2=O)C(=O)C1 [Tetraketone, 6]	26.4
Cc1ccc(C(C2C(=O)CC(C)(C)CC2=O)C2C(=O)CC(C)(C)CC2=O)o1 [Tetraketone, 22]	12.5
CC1(C)CC(=O)C(C(c2ccccc2[N+](=O)[O-])C2C(=O)CC(C)(C)CC2=O)C(=O)C1 [Tetraketone, 16]	191
CC1(C)CC(=O)C(C(c2ccccc2Cl)C2C(=O)CC(C)(C)CC2=O)C(=O)C1 [Tetraketone, 12]	28.4
CC1(C)CC(=O)C(C(c2ccc(/C(Br)=C/c3ccccc3)cc2)C2C(=O)CC(C)(C)CC2=O)C(=O)C1 [Tetraketone, 20]	35.4
CCOc1ccc(C(C2C(=O)CC(C)(C)CC2=O)C2C(=O)CC(C)(C)CC2=O)cc1 [Tetraketone, 10]	30.8
CC1(C)CC(=O)C(C(c2ccccc2)C2C(=O)CC(C)(C)CC2=O)C(=O)C1 [Tetraketone, 2]	33
CC1(C)CC(=O)C(C(c2ccc(/C=C/c3ccccc3)cc2)C2C(=O)CC(C)(C)CC2=O)C(=O)C1 [Tetraketone, 19]	7.8
COc1ccc(C(C2C(=O)CC(C)(C)CC2=O)C2C(=O)CC(C)(C)CC2=O)c(OC)c1 [Tetraketone, 9]	33.1
CN(C)c1ccc(C(C2C(=O)CC(C)(C)CC2=O)C2C(=O)CC(C)(C)CC2=O)cc1 [Tetraketone, 11]	17.5
COc1ccc(C(C2C(=O)CC(C)(C)CC2=O)C2C(=O)CC(C)(C)CC2=O)cc1 [Tetraketone, 8]	21.3
CC1(C)CC(=O)C(C(c2ccccc2O)C2C(=O)CC(C)(C)CC2=O)C(=O)C1 [Tetraketone, 4]	198
Cc1ccc(C(C2C(=O)CC(C)(C)CC2=O)C2C(=O)CC(C)(C)CC2=O)cc1 [Tetraketone, 3]	16.3
CC1(C)CC(=O)C(C(c2ccco2)C2C(=O)CC(C)(C)CC2=O)C(=O)C1 [Tetraketone, 21]	51.5
